We go through 29 molecules from patent publication US8895733B2 (Novartis AG, priority 2010, dated 2014).

Like-named read-outs stand apart in the source and are kept apart here. A value given as a limit tells only on which side of the number the result lay.

The assay addresses T1, Nav 1.7 (Homo sapiens, UniProt Q15858).
T1 construct: expressed in transfected cells
Kind of assay: Whole-cell voltage clamp electrophysiology, automated patch clamp (marker c in Table of Examples). The assay is classed as cell-based. Conditions: read-out: Nav 1.7 activity. The source says: a.IonWork Quattro data, b=Manual patch clamp data, c=Automated patch clamp data M=Method
Whole-Cell Voltage Clamp Electrophysiology Assay
Patch-clamp electrophysiology is considered the gold standard technique for investigation of ion channel function and pharmacology. Using this method, sodium channel currents can be measured in cells, which stably (or transiently) express the sodium channel subtype of interest. Application of compounds during such experiments provides a functional measure of the activity and potency of compounds affecting the ion channel of interest.
Electrophysiological studies can be performed using automated or manual patch-clamp techniques. Automated patch-clamp instruments suitable for this work include the Ion Works HT (MDS), Ion Works Quattro (MDS), PatchLiner (Nanion technologies), Port-A-Patch (Nanion technologies), QPatch (Sophion) or any other suitable platform.
For recording in automated patch-clamp instruments, cells expressing the voltage-gated sodium channel subtype of interest are dispensed in appropriate chips (plates with more than one recording chambers each containing one or more apertures to generate whole-cell patches), as provided by the manufacturer. Typically, the whole-cell perforated patch configuration is used for probing the pharmacology of compounds in automated patch-clamp electrophysiology on sodium channels. Extracellular and intracellular buffers for such experiments are composed according to the literature, or according to the instructions provided by the manufacturer of the instruments. Test solutions, which contain the compounds to be tested, are applied to the cells expressing the sodium channel of interest by a pipetting system, typically integrated into the robots.
A suitable voltage stimulus protocol is used to activate voltage-gated sodium channel proteins of interest. A typical stimulus protocol may consist of sweeps of sequential voltage pulses starting from a holding potential (i.e. −65 mV), to a more positive and depolarising test pulse potential (i.e. −10 mV) and finally to a more negative and hyperpolarising potential (i.e. −100 mV). According to the biophysics of the voltage-gated ion channel of interest and interest in channel configuration the voltages and durations of the pulses as well as the overall frequency of sweeps applied might vary. Accordingly, a stimulus protocol was designed to assess compounds due to their potential to block NaV1.7 channels primarily in inactivated state. Selectivity over other voltage-gated sodium channel members was assessed by protocols that reflect the native function of the channels (i.e. heart rate or firing of neurons).

[1] abbreviates: marker c = Automated patch clamp data.
[2] abbreviates: marker c: Automated patch clamp data.

T1 sequence (Q15858 whole entry): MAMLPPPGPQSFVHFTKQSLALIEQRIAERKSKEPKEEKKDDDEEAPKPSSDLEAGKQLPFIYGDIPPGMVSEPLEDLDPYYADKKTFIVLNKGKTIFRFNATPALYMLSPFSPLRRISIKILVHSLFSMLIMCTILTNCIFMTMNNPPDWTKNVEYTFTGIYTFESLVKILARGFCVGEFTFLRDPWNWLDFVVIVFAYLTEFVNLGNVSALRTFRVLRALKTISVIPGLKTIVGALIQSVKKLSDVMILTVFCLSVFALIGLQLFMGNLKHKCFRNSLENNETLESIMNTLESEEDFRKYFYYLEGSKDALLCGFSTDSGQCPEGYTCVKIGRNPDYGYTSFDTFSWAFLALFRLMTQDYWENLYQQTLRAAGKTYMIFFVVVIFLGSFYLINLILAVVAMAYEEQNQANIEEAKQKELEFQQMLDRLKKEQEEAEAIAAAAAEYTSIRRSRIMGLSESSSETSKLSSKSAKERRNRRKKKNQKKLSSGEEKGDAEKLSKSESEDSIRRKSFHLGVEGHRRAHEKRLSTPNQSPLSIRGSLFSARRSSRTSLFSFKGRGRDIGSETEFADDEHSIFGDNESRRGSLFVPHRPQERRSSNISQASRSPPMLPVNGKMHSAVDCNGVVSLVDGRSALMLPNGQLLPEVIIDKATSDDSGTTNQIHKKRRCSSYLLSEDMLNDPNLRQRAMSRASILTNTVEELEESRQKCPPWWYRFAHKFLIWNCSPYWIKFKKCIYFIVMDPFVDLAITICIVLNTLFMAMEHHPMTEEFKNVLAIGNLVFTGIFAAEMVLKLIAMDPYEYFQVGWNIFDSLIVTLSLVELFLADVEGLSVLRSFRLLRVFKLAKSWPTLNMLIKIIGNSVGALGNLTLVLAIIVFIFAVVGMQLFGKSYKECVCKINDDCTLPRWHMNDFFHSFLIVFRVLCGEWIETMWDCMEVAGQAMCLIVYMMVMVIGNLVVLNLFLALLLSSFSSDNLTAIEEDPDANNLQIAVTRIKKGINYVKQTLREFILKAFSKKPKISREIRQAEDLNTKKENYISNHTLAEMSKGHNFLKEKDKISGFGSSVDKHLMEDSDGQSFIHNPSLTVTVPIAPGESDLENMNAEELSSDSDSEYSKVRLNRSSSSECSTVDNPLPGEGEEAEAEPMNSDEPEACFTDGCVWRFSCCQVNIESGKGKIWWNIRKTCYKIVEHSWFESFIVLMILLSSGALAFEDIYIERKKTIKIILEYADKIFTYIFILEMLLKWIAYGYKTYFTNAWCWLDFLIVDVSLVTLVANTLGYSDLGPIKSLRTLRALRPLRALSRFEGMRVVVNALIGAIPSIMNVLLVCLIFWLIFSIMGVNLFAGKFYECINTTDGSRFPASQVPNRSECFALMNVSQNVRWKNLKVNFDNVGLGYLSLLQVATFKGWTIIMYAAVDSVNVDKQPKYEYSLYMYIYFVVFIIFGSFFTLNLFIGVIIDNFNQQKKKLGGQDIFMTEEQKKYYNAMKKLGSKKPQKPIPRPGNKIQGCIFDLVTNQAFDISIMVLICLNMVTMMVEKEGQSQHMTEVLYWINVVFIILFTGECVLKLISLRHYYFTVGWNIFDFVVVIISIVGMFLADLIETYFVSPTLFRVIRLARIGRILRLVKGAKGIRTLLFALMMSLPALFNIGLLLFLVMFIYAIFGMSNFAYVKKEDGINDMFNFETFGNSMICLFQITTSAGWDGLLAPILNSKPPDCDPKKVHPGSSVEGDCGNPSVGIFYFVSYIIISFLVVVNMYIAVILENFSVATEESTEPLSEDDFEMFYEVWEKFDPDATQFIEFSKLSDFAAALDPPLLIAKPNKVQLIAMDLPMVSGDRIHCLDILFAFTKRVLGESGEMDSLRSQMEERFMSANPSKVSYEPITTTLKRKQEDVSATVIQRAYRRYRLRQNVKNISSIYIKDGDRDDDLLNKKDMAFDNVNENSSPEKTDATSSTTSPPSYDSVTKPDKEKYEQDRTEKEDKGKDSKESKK

As to `CN(c1ccccc1)c1nc(N)nc(-c2noc(N[C@H]3CC[C@H](OCC(F)(F)F)CC3)n2)n1` [Example 337], the IC50 under setting [1] was determined as 7800 nM.

On to `CC(C)S(=O)(=O)N1CCN(c2nc(-c3nc(N)nc(N(C)c4ccccc4)n3)no2)CC1` [Example 504, 2-N-methyl-2-N-phenyl-6-{5-[4-(propane-2-sulfonyl)piperazin-1-yl]-1,2,4-oxadiazol-3-yl}-1,3,5-triazine-2,4-diamine], for which the IC50 under setting [1] is more than 5370 nM.

For the molecule `CN(c1ccc(F)nc1)c1nc(N)nc(-c2noc(-c3ccc(OCC(F)(F)F)nc3)n2)n1` [Example 432, 2-N-(6-Fluoropyridin-3-yl)-2-N-methyl-6-{5-[6-(2,2,2-trifluoroethoxy)pyridin-3-yl]-1,2,4-oxadiazol-3-yl}-1,3,5-triazine-2,4-diamine], the IC50 under setting [1] came out at 6290 nM.

In the case of `CC(C)C(=O)NC1CCC(c2nc(-c3nc(N)nc(N(C)c4ccccc4)n3)no2)CC1` (centres unmarked) [Example 425, N-[4-(3-{4-Amino-6-[methyl(phenyl)amino]-1,3,5-triazin-2-yl}-1,2,4-oxadiazol-5-yl)cyclohexyl]-2-methylpropanamide], the IC50 under setting [1] worked out at 2450 nM.

Consider `Nc1nc(-c2noc(-c3ccco3)n2)nc(N(CCO)c2ccccc2)n1` [Example 70, 2-{[4-Amino-6-(5-furan-2-yl-[1,2,4]oxadiazol-3-yl)-[1,3,5]triazin-2-yl]-phenyl-amino}-ethanol], for which, under setting [2], the IC50 turned out to be 1020 nM.

Regarding `Nc1nc(Nc2cccc(F)c2)nc(-c2noc(C(=O)NC3CCCC3)n2)n1` [Example 219, 3-{4-amino-6-[(3-fluorophenyl)amino]-1,3,5-triazin-2-yl}-N-cyclopentyl-1,2,4-oxadiazole-5-carboxamide], the IC50 under setting [1] stood at 1960 nM.

For `CC(C)OC[C@@H]1[C@H]2CN(c3nc(-c4nc(N)nc(Nc5ccccc5)n4)no3)C[C@@H]12` [Example 398, 2-N-phenyl-6-{5-[(1R,5S,6S)-6-[(propan-2-yloxy)methyl]-3-azabicyclo[3.1.0]hexan-3-yl]-1,2,4-oxadiazol-3-yl}-1,3,5-triazine-2,4-diamine], the IC50 under setting [1] worked out at 691 nM.

Turning to `CN(c1ccccc1)c1nc(N)nc(-c2noc(C3CCN(C(=O)OC(C)(C)C)CC3)n2)n1` [Example 505, tert-butyl 4-(3-{4-amino-6-[methyl(phenyl)amino]-1,3,5-triazin-2-yl}-1,2,4-oxadiazol-5-yl)piperidine-1-carboxylate], the IC50 under setting [1] is 982 nM.

For `Nc1nc(Nc2ccccc2)nc(-c2noc(N3CCCCC3)n2)n1` [Example 221, 2-N-Phenyl-6-[5-(piperidin-1-yl)-1,2,4-oxadiazol-3-yl]-1,3,5-triazine-2,4-diamine], the IC50 under setting [1] was found to be 729 nM.

For the molecule `Cc1cccc(N(C)c2nc(N)nc(-c3noc(-c4ccccc4OC(F)(F)F)n3)n2)c1` [Example 194, 2-N-methyl-2-N-(3-methylphenyl)-6-{5-[2-(trifluoromethoxy)phenyl]-1,2,4-oxadiazol-3-yl}-1,3,5-triazine-2,4-diamine], the IC50 under setting [2] was 843 nM.

As to `CN(c1ccccc1)c1nc(N)nc(-c2noc([C@H]3CCCN3S(=O)(=O)CC(F)(F)F)n2)n1` [Example 448, 2-N-methyl-2-N-phenyl-6-{5-[(2R)-1-[(2,2,2-trifluoroethane)sulfonyl]pyrrolidin-2-yl]-1,2,4-oxadiazol-3-yl}-1,3,5-triazine-2,4-diamine], the IC50 under setting [1] worked out at 287 nM.

Consider `CN(c1ccccc1)c1nc(N)nc(-c2noc(C3CCN(S(=O)(=O)C4CCCC4)CC3)n2)n1` [Example 509, 6-{5-[1-(cyclopentanesulfonyl)piperidin-4-yl]-1,2,4-oxadiazol-3-yl}-2-N-methyl-2-N-phenyl-1,3,5-triazine-2,4-diamine], for which the IC50 under setting [1] is 1110 nM.

As for `Nc1nc(Nc2cccc(F)c2)nc(-c2noc(C(=O)N3CCOCC3)n2)n1` [Example 232, 2-N-(3-fluorophenyl)-6-{5-[(morpholin-4-yl)carbonyl]-1,2,4-oxadiazol-3-yl}-1,3,5-triazine-2,4-diamine], the IC50 under setting [1] stood at 9330 nM.

Consider `CN(c1ccccc1)c1nc(N)nc(-c2noc(-c3ccc(C(F)(F)F)nc3Cl)n2)n1` [Example 142, 6-{5-[2-chloro-6-(trifluoromethyl)pyridin-3-yl]-1,2,4-oxadiazol-3-yl}-2-N-methyl-2-N-phenyl-1,3,5-triazine-2,4-diamine], for which the IC50 under setting [2] came to 5820 nM.

Take `CN(c1ccccc1)c1nc(N)nc(-c2noc(-c3cccnc3N)n2)n1` [Example 53, 6-[5-(2-Amino-pyridin-3-yl)-[1,2,4]oxadiazol-3-yl]-N-methyl-N-phenyl-[1,3,5]triazine-2,4-diamine]: the IC50 under setting [2] turned out to be 703 nM.

Consider `CN(c1ccccc1)c1nc(N)nc(-c2noc(N3CCC(COC4CCC4)CC3)n2)n1` [Example 217, 6-{5-[4-(cyclobutoxymethyl)piperidin-1-yl]-1,2,4-oxadiazol-3-yl}-2-N-methyl-2-N-phenyl-1,3,5-triazine-2,4-diamine], for which the IC50 under setting [1] amounted to 415 nM.

For `COC(=O)c1ccc(-c2nc(-c3nc(N)nc(N(C)c4ccccc4)n3)no2)nc1` [Example 285, methyl 6-(3-{4-amino-6-[methyl(phenyl)amino]-1,3,5-triazin-2-yl}-1,2,4-oxadiazol-5-yl)pyridine-3-carboxylate], the IC50 under setting [1] amounted to 308 nM.

As to `Cc1cccc(N(C)c2nc(N)nc(-c3noc(-c4ccco4)n3)n2)c1F` [Example 107, N-(2-Fluoro-3-methyl-phenyl)-6-(5-furan-2-yl-[1,2,4]oxadiazol-3-yl)-N-methyl-[1,3,5]triazine-2,4-diamine], the IC50 under setting [2] worked out at 749 nM.

Regarding `COc1ccc(-c2nc(-c3nc(N)nc(N(C)c4cccc(C)c4)n3)no2)cc1` [Example 184, 6-[5-(4-methoxyphenyl)-1,2,4-oxadiazol-3-yl]-2-N-methyl-2-N-(3-methylphenyl)-1,3,5-triazine-2,4-diamine], under setting [2], the IC50 is 62 nM.

For `CN(c1ccccc1)c1nc(N)nc(-c2noc(-c3cccnc3)n2)n1` [Example 115, N-Methyl-N-phenyl-6-(5-pyridin-3-yl-[1,2,4]oxadiazol-3-yl)-[1,3,5]triazine-2,4-diamine], under setting [2], the IC50 came out at 1320 nM.

As to `CN(c1ccccc1)c1nc(N)nc(-c2noc(C3CCCO3)n2)n1` (centres unmarked) [Example 66, N-Methyl-N-phenyl-6-[5-(tetrahydro-furan-2-yl)-[1,2,4]oxadiazol-3-yl]-[1,3,5]triazine-2,4-diamine], under setting [2], the IC50 was 1680 nM.

`CN(c1cccc(F)c1)c1nc(N)nc(-c2noc(-c3cccs3)n2)n1` [Example 99, N-(3-Fluoro-phenyl)-N-methyl-6-(5-thiophen-2-yl-[1,2,4]oxadiazol-3-yl)-[1,3,5]triazine-2,4-diamine]: the IC50 under setting [2] stood at 1130 nM.

`CN(c1ccccc1)c1nc(N)nc(-c2noc(C3CCN(S(=O)(=O)C4CC4)CC3)n2)n1` [Example 506, 6-{5-[1-(cyclopropanesulfonyl)piperidin-4-yl]-1,2,4-oxadiazol-3-yl}-2-N-methyl-2-N-phenyl-1,3,5-triazine-2,4-diamine]: the IC50 under setting [1] turned out to be 7100 nM.

`CN(C)S(=O)(=O)N1CCC(c2nc(-c3nc(N)nc(Nc4ccccc4)n3)no2)CC1` [Example 517, 4-{3-[4-amino-6-(phenylamino)-1,3,5-triazin-2-yl]-1,2,4-oxadiazol-5-yl}-N,N-dimethylpiperidine-1-sulfonamide]: the IC50 under setting [1] amounted to 570 nM.

With `CN(c1ccccc1)c1nc(N)nc(-c2noc(-c3ccc(COCC(F)(F)F)cc3)n2)n1` [Example 351, 2-N-methyl-2-N-phenyl-6-(5-{4-[(2,2,2-trifluoroethoxy)methyl]phenyl}-1,2,4-oxadiazol-3-yl)-1,3,5-triazine-2,4-diamine], under setting [1], the IC50 was 11 nM.

As for `CC(C)NC(=O)c1nc(-c2nc(N)nc(Nc3cccc(F)c3)n2)no1` [Example 234, 3-{4-amino-6-[(3-fluorophenyl)amino]-1,3,5-triazin-2-yl}-N-(propan-2-yl)-1,2,4-oxadiazole-5-carboxamide], the IC50 under setting [1] worked out at 1270 nM.

Consider `CN(c1ccccc1)c1nc(N)nc(-c2noc(-c3ccc(C(=O)NCC4CC4)nc3)n2)n1` [Example 288, 5-(3-{4-amino-6-[methyl(phenyl)amino]-1,3,5-triazin-2-yl}-1,2,4-oxadiazol-5-yl)-N-(cyclopropylmethyl)pyridine-2-carboxamide], for which the IC50 under setting [1] was 1140 nM.

On to `CN(c1ccccc1)c1nc(N)nc(-c2noc(-c3ncccc3OC3CCC3)n2)n1` [Example 491, 6-[5-(3-cyclobutoxypyridin-2-yl)-1,2,4-oxadiazol-3-yl]-2-N-methyl-2-N-phenyl-1,3,5-triazine-2,4-diamine], for which the IC50 under setting [1] is 1040 nM.

As to `CN(c1ccccc1)c1nc(N)nc(-c2noc([C@H]3[C@@H]4C(=O)N(Cc5ccccc5)C(=O)[C@@H]43)n2)n1` [Example 386, (1R,5S,6S)-6-(3-{4-Amino-6-[methyl(phenyl)amino]-1,3,5-triazin-2-yl}-1,2,4-oxadiazol-5-yl)-3-benzyl-3-azabicyclo[3.1.0]hexane-2,4-dione], the IC50 under setting [1] was more than 9980 nM.
